US20100092526A1, “NANOEMULSION THERAPEUTIC COMPOSITIONS AND METHODS OF USING THE SAME” (NanoBio Corporation, priority 2008, published 2010)
Converted amounts (≈) assume the structure as drawn. Like-named read-outs stand apart in the source and are kept apart here.

How the values were obtained:
Acinetobacter baumannii [1] = experiment: MIC/MBC of nanoemulsions against gram-negative isolates (CLSI, alamar blue); assay type: cell-based; conditions: Acinetobacter baumannii (n = 5)
Burkholderia cenocepacia = experiment: MIC/MBC against CF isolates (CLSI, alamar blue); conditions: Burkholderia cenocepacia
Pseudomonas aeruginosa [2] = experiment: MIC/MBC of nanoemulsions against gram-negative isolates (CLSI, alamar blue); assay type: cell-based; conditions: Pseudomonas aeruginosa (n = 5)
[3] = tested on: Stenotrophomonas maltophilia; experiment: MIC/MBC against CF isolates (CLSI, alamar blue); conditions: Stenotrophomonas maltophilia
[4] = tested on: Stenotrophomonas maltophilia; experiment: MIC/MBC of nanoemulsions against gram-negative isolates (CLSI, alamar blue); assay type: cell-based; conditions: Stenotrophomonas maltophilia (n = 5)
Acinetobacter baumannii [5] = experiment: MIC/MBC against clinical isolates (CLSI, alamar blue); conditions: Acinetobacter baumannii
Klebsiella pneumoniae = experiment: MIC/MBC of nanoemulsions against gram-negative isolates (CLSI, alamar blue); assay type: cell-based; conditions: Klebsiella pneumoniae (n = 5)
Burkholderia cepacia = experiment: as above; assay type: cell-based; conditions: Burkholderia cepacia (n = 5)
Pseudomonas aeruginosa [6] = experiment: MIC/MBC against CF isolates (CLSI, alamar blue); conditions: Pseudomonas aeruginosa
Proteus mirabilis = experiment: MIC/MBC of nanoemulsions against gram-negative isolates (CLSI, alamar blue); assay type: cell-based; conditions: Proteus mirabilis (n = 5)
Escherichia coli = experiment: as above; assay type: cell-based; conditions: Escherichia coli (n = 5)
[7] = nanoemulsions in the presence of 5 mM EDTA
[8] = nanoemulsions in the presence of 5 mM EDTA, in µg/mL
[9] = CF Stenotrophomonas isolate NB41
[10] = CF Stenotrophomonas isolate NB42
[11] = CF Stenotrophomonas isolate NB43
[12] = CF Stenotrophomonas isolate NB44
[13] = CF Stenotrophomonas isolate NB45
[14] = CF Stenotrophomonas isolate Steno 1
[15] = CF Stenotrophomonas isolate Steno 2
[16] = CF Stenotrophomonas isolate Steno 3
[17] = CF Stenotrophomonas isolate Steno 4
[18] = CF Stenotrophomonas isolate Steno 6
[19] = CF Stenotrophomonas isolate Steno 8

## C[C@H]1COc2c(N3CCN(C)CC3)c(F)cc3c(=O)c(C(=O)O)cn1c23 [Levofloxacin]
Acinetobacter baumannii [1]
  % resistant: 20.0%
  % susceptible: 80.0%
Acinetobacter baumannii [1]; [7]
  MIC50: 0.25 µg/mL
Burkholderia cenocepacia; CF Burkholderia isolate NB21
  MBC: 2 µg/mL (≈ 5.53 µM)
  MIC: 2 µg/mL (≈ 5.53 µM)
Burkholderia cenocepacia; CF Burkholderia isolate NB22
  MBC: 4 µg/mL (≈ 11.1 µM)
  MIC: 1 µg/mL (≈ 2.77 µM)
Burkholderia cenocepacia; CF Burkholderia isolate NB23
  MBC: > 16 µg/mL
  MIC: 8 µg/mL (≈ 22.1 µM)
Burkholderia cenocepacia; CF Burkholderia isolate NB24
  MBC: 16 µg/mL (≈ 44.3 µM)
  MIC: 8 µg/mL (≈ 22.1 µM)
Burkholderia cenocepacia; CF Burkholderia isolate NB25
  MBC: 8 µg/mL (≈ 22.1 µM)
  MIC: 4 µg/mL (≈ 11.1 µM)
Burkholderia cenocepacia; CF Burkholderia isolate NB26
  MBC: 8 µg/mL (≈ 22.1 µM)
  MIC: 8 µg/mL (≈ 22.1 µM)
Burkholderia cenocepacia; CF Burkholderia isolate NB27
  MBC: 8 µg/mL (≈ 22.1 µM)
  MIC: 4 µg/mL (≈ 11.1 µM)
Burkholderia cenocepacia; CF Burkholderia isolate NB28b
  MBC: 2 µg/mL (≈ 5.53 µM)
  MIC: 1 µg/mL (≈ 2.77 µM)
Burkholderia cenocepacia; CF Burkholderia isolate NB29
  MBC: 4 µg/mL (≈ 11.1 µM)
  MIC: 1 µg/mL (≈ 2.77 µM)
Burkholderia cenocepacia; CF Burkholderia isolate NB30
  MBC: 1 µg/mL (≈ 2.77 µM)
  MIC: 1 µg/mL (≈ 2.77 µM)
Pseudomonas aeruginosa [2]
  % resistant: 0.0%
  % susceptible: 80.0%
Pseudomonas aeruginosa [2]; [7]
  MIC50: 1 µg/mL
Pseudomonas aeruginosa [2]; [8]
  MIC Range: 0.25-4
[3]
  MBC: 16 µg/mL (≈ 44.3 µM)
  MIC50: 2 µg/mL (≈ 5.53 µM)
  MIC90: 8 µg/mL (≈ 22.1 µM)
[3]; [9]
  MBC: 4 µg/mL (≈ 11.1 µM)
  MIC: 2 µg/mL (≈ 5.53 µM)
[3]; [10]
  MBC: 16 µg/mL (≈ 44.3 µM)
  MIC: 8 µg/mL (≈ 22.1 µM)
[3]; [11]
  MBC: 4 µg/mL (≈ 11.1 µM)
  MIC: 2 µg/mL (≈ 5.53 µM)
[3]; [12]
  MBC: 16 µg/mL (≈ 44.3 µM)
  MIC: 8 µg/mL (≈ 22.1 µM)
[3]; [13]
  MBC: 2 µg/mL (≈ 5.53 µM)
  MIC: 1 µg/mL (≈ 2.77 µM)
[3]; [14]
  MBC: 4 µg/mL (≈ 11.1 µM)
  MIC: 1 µg/mL (≈ 2.77 µM)
[3]; [15]
  MBC: 8 µg/mL (≈ 22.1 µM)
  MIC: 4 µg/mL (≈ 11.1 µM)
[3]; [16]
  MBC: 4 µg/mL (≈ 11.1 µM)
  MIC: 1 µg/mL (≈ 2.77 µM)
[3]; [17]
  MBC: 2 µg/mL (≈ 5.53 µM)
  MIC: 0.5 µg/mL (≈ 1.38 µM)
[3]; [18]
  MBC: 4 µg/mL (≈ 11.1 µM)
  MIC: 2 µg/mL (≈ 5.53 µM)
[3]; [19]
  MBC: 2 µg/mL (≈ 5.53 µM)
  MIC: 2 µg/mL (≈ 5.53 µM)
[3]; read-out: MBC 50, 11 CF Stenotrophomonas isolates
  MBC: 4 µg/mL (≈ 11.1 µM)
[4]
  % resistant: 20.0%
  % susceptible: 60.0%
[4]; [7]
  MIC50: 0.5 µg/mL
[4]; [8]
  MIC Range: 0.5-8
Acinetobacter baumannii [5]
  MIC50: 16 µg/mL (≈ 44.3 µM)
  MIC90: > 16 µg/mL
Acinetobacter baumannii [5]; Acinetobacter isolate NB31
  MBC: 16 µg/mL (≈ 44.3 µM)
  MIC: 16 µg/mL (≈ 44.3 µM)
Acinetobacter baumannii [5]; Acinetobacter isolate NB32
  MBC: 8 µg/mL (≈ 22.1 µM)
  MIC: 8 µg/mL (≈ 22.1 µM)
Acinetobacter baumannii [5]; Acinetobacter isolate NB33
  MBC: 8 µg/mL (≈ 22.1 µM)
  MIC: 8 µg/mL (≈ 22.1 µM)
Acinetobacter baumannii [5]; Acinetobacter isolate NB34
  MBC: 16 µg/mL (≈ 44.3 µM)
  MIC: 16 µg/mL (≈ 44.3 µM)
Acinetobacter baumannii [5]; Acinetobacter isolate NB35
  MBC: > 16 µg/mL
  MIC: > 16 µg/mL
Acinetobacter baumannii [5]; Acinetobacter isolate NB36
  MBC: 1 µg/mL (≈ 2.77 µM)
  MIC: 1 µg/mL (≈ 2.77 µM)
Acinetobacter baumannii [5]; Acinetobacter isolate NB37
  MBC: 16 µg/mL (≈ 44.3 µM)
  MIC: 16 µg/mL (≈ 44.3 µM)
Acinetobacter baumannii [5]; Acinetobacter isolate NB38
  MBC: > 16 µg/mL
  MIC: 8 µg/mL (≈ 22.1 µM)
Acinetobacter baumannii [5]; Acinetobacter isolate NB39
  MBC: 16 µg/mL (≈ 44.3 µM)
  MIC: 16 µg/mL (≈ 44.3 µM)
Acinetobacter baumannii [5]; Acinetobacter isolate NB40
  MBC: > 16 µg/mL
  MIC: > 16 µg/mL
Acinetobacter baumannii [5]; read-out: MBC 50, 10 Acinetobacter isolates
  MBC: 16 µg/mL (≈ 44.3 µM)
Klebsiella pneumoniae
  % resistant: 20.0%
  % susceptible: 80.0%
Klebsiella pneumoniae; [7]
  MIC50: 0.06 µg/mL
Klebsiella pneumoniae; [8]
  MIC Range: 0.06-8
Burkholderia cepacia
  % resistant: 0.0%
  % susceptible: 100.0%
Burkholderia cepacia; [7]
  MIC50: 2 µg/mL
Burkholderia cepacia; [8]
  MIC Range: 1-2
Pseudomonas aeruginosa [6]
  MIC50: 0.5 µg/mL (≈ 1.38 µM)
  MIC90: 8 µg/mL (≈ 22.1 µM)
Pseudomonas aeruginosa [6]; CF Pseudomonas isolate NB1
  MBC: 1 µg/mL (≈ 2.77 µM)
  MIC: 0.5 µg/mL (≈ 1.38 µM)
Pseudomonas aeruginosa [6]; CF Pseudomonas isolate NB2
  MBC: 0.5 µg/mL (≈ 1.38 µM)
  MIC: 0.5 µg/mL (≈ 1.38 µM)
Pseudomonas aeruginosa [6]; CF Pseudomonas isolate NB3
  MBC: 0.5 µg/mL (≈ 1.38 µM)
  MIC: 0.25 µg/mL (≈ 0.692 µM)
Pseudomonas aeruginosa [6]; CF Pseudomonas isolate NB4
  MBC: 0.5 µg/mL (≈ 1.38 µM)
  MIC: 0.25 µg/mL (≈ 0.692 µM)
Pseudomonas aeruginosa [6]; CF Pseudomonas isolate NB5
  MBC: 1 µg/mL (≈ 2.77 µM)
  MIC: 0.5 µg/mL (≈ 1.38 µM)
Pseudomonas aeruginosa [6]; CF Pseudomonas isolate NB6
  MBC: 1 µg/mL (≈ 2.77 µM)
  MIC: 0.5 µg/mL (≈ 1.38 µM)
Pseudomonas aeruginosa [6]; CF Pseudomonas isolate NB7
  MBC: 1 µg/mL (≈ 2.77 µM)
  MIC: 0.5 µg/mL (≈ 1.38 µM)
Pseudomonas aeruginosa [6]; CF Pseudomonas isolate NB8
  MBC: 0.5 µg/mL (≈ 1.38 µM)
  MIC: 0.5 µg/mL (≈ 1.38 µM)
Pseudomonas aeruginosa [6]; CF Pseudomonas isolate NB9
  MBC: 0.5 µg/mL (≈ 1.38 µM)
  MIC: 0.5 µg/mL (≈ 1.38 µM)
Pseudomonas aeruginosa [6]; CF Pseudomonas isolate NB10
  MBC: 0.5 µg/mL (≈ 1.38 µM)
  MIC: 0.5 µg/mL (≈ 1.38 µM)
Pseudomonas aeruginosa [6]; CF Pseudomonas isolate NB11
  MBC: 16 µg/mL (≈ 44.3 µM)
  MIC: 8 µg/mL (≈ 22.1 µM)
Pseudomonas aeruginosa [6]; CF Pseudomonas isolate NB12
  MBC: 1 µg/mL (≈ 2.77 µM)
  MIC: 0.25 µg/mL (≈ 0.692 µM)
Pseudomonas aeruginosa [6]; CF Pseudomonas isolate NB13
  MBC: 2 µg/mL (≈ 5.53 µM)
  MIC: 0.5 µg/mL (≈ 1.38 µM)
Pseudomonas aeruginosa [6]; CF Pseudomonas isolate NB14
  MBC: > 16 µg/mL
  MIC: 16 µg/mL (≈ 44.3 µM)
Pseudomonas aeruginosa [6]; CF Pseudomonas isolate NB15
  MBC: 4 µg/mL (≈ 11.1 µM)
  MIC: 2 µg/mL (≈ 5.53 µM)
Pseudomonas aeruginosa [6]; CF Pseudomonas isolate NB16
  MBC: 8 µg/mL (≈ 22.1 µM)
  MIC: 2 µg/mL (≈ 5.53 µM)
Pseudomonas aeruginosa [6]; CF Pseudomonas isolate NB17
  MBC: 16 µg/mL (≈ 44.3 µM)
  MIC: 16 µg/mL (≈ 44.3 µM)
Pseudomonas aeruginosa [6]; CF Pseudomonas isolate NB18
  MBC: 8 µg/mL (≈ 22.1 µM)
  MIC: 4 µg/mL (≈ 11.1 µM)
Pseudomonas aeruginosa [6]; CF Pseudomonas isolate NB19
  MBC: 4 µg/mL (≈ 11.1 µM)
  MIC: 2 µg/mL (≈ 5.53 µM)
Pseudomonas aeruginosa [6]; CF Pseudomonas isolate NB20
  MBC: 1 µg/mL (≈ 2.77 µM)
  MIC: 0.5 µg/mL (≈ 1.38 µM)
Pseudomonas aeruginosa [6]; read-out: MBC 50, 20 CF Pseudomonas isolates
  MBC: 1 µg/mL (≈ 2.77 µM)
Pseudomonas aeruginosa [6]; read-out: MBC 50, second MBC 50 line of the summary, Stenotrophomonas, values equal those of the CF Pseudomonas isolates
  MBC: 1 µg/mL (≈ 2.77 µM)
Pseudomonas aeruginosa [6]; read-out: MBC 90, 20 CF Pseudomonas isolates
  MBC: 16 µg/mL (≈ 44.3 µM)
Pseudomonas aeruginosa [6]; read-out: MBC 90, second MBC 90 line of the summary, Stenotrophomonas, values equal those of the CF Pseudomonas isolates
  MBC: 16 µg/mL (≈ 44.3 µM)
Proteus mirabilis
  % resistant: 0.0%
  % susceptible: 100.0%
Proteus mirabilis; [7]
  MIC50: 0.12 µg/mL
Proteus mirabilis; [8]
  MIC Range: 0.06-2
Escherichia coli
  % resistant: 40.0%
  % susceptible: 60.0%
Escherichia coli; [7]
  MIC50: 0.03 µg/mL
